Values of other authors in PMC5520971 (Organic & biomolecular chemistry, 2017).

Tests used:
[1] = test system: hepatocellular carcinoma cells; conditions: ref [18]
[2] = test system: hepatocellular carcinoma cells; conditions: ref [18]; remark: listed apart in the source

CC1=C(/C=C/C(C)=C/C=C/C(C)=C/C(=O)O)C(C)(C)CCC1 [all-trans retinoic acid]
growth of hepatocellular carcinoma cells in vitro [1]: selectively inhibited the growth | growth of hepatocellular carcinoma cells in a mouse xenograft model [2]: selectively inhibited the growth
